Test results reported in patent US20090291968A1, “SUBSTITUTED INDAZOLE DERIVATIVES, THEIR MANUFACTURE AND USE AS PHARMACEUTICAL AGENTS” (priority 2006, published 2009).
pIC50: −log10 of the molar value.

Experiments:
Aurora A kinase = molecular target: T1, Aurora A kinase (Homo sapiens, UniProt O14965); experiment: IC50 determination for inhibitors of Aurora A (ELISA-type kinase assay, GST-Histone H3 substrate); format: biochemical; settings: mutant Aurora A kinase, 30 μM ATP, 40 minutes, read-out: IC50 Aurora A kinase inhibition
T1 sequence (O14965 1-403 T288D): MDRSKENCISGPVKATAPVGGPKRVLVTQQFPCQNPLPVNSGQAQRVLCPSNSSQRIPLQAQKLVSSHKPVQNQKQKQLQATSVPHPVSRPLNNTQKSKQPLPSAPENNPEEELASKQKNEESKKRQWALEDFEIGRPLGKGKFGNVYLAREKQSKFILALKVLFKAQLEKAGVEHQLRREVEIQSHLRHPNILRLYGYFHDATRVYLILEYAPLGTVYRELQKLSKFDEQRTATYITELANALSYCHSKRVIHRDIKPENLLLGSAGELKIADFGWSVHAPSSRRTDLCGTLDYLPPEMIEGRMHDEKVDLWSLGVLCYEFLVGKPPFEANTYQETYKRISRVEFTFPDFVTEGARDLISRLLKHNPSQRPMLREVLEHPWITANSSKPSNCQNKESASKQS
Description: Aurora A is a serine threonine kinase involved in spindle assembly and chromosome segregation.
The assay is a typically ELISA-type assay where substrate (GST-Histone H3) is coupled to the assay-plate and is phosphorylated by the kinase. Phosphorylation is detected by a mouse anti-Phosphopeptid mAb and an HRP-labeled anti-mouse pAb. The assay is validated for IC50-determination.
Kinase activities were measured by Enzyme-Linked Immunosorbent Assay (ELISA): Maxisorp 384-well plates (Nunc) were coated with recombinant fusion protein comprising residues 1-15 of HistoneH3 fused to the N-terminus of Glutathione-S-Transferase. Plates were then blocked with a solution of 1 mg/mL I-block (Tropix cat# T2015—highly purified form of casein) in phosphate-buffered saline. Kinase reactions were carried out in the wells of the ELISA plate by combining an appropriate amount of mutant Aurora A kinase with test compound and 30 μM ATP. The reaction buffer was 10× Kinase Buffer (Cell Signaling cat #9802) supplemented with 1 μg/mL I-block. Reactions were stopped after 40 minutes by addition of 25 mM EDTA. After washing, substrate phosphorylation was detected by addition of anti-phospho-Histone H3 (Ser 10) 6G3 mAb (Cell Signaling cat #9706) and sheep anti-mouse pAb-HRP (Amersham cat# NA931V), followed by colorimetric development with TMB (3,3′,5,5′-tetramethylbenzidine from Kirkegaard & Perry Laboratories). After readout of the absorbance, IC50 values were calculated using a non-linear curve fit (XLfit software (ID Business Solution Ltd., Guilford, Surrey, UK)).

HCT 116 cells = experiment: CellTiter-Glo assay in HCT 116 cells (cell viability); format: cell-based; settings: 120 h; HCT 116 human colon carcinoma cells, 5 days incubation, CellTiter-Glo luminescence
Description: The CellTiter-Glo™ Luminescent Cell Viability Assay (Promega) is a homogeneous method of determining the number of viable cells in culture based on quantitation of the ATP present, which signals the presence of metabolically active cells.
HCT 116 cells (human colon carcinoma, ATCC-No. CCl-247) were cultivated in RPMI 1640 medium with GlutaMAX™ I (Invitrogen, Cat-No. 61870-010), 2,5% Fetal Calf Serum (FCS, Sigma Cat-No. F4135 (FBS)); 100 Units/ml penicillin/100 μg/ml streptomycin (=Pen/Strep from Invitrogen Cat. No. 15140). For the assay the cells were seeded in 384 well plates, 1000 cells per well, in the same medium. The next day the test compounds were added in various concentrations ranging from 30 μM to 0.0015 μM (10 concentrations, 1:3 diluted). After 5 days the CellTiter-Glo™ assay was done according to the instructions of the manufacturer (CellTiter-Glo™ Luminescent Cell Viability Assay, from Promega). In brief: the cell-plate was equilibrated to room temperature for approximately 30 minutes and than the CellTiter-Glo™ reagent was added. The contents were carefully mixed for 15 minutes to induce cell lysis. After 45 minutes the luminescent signal was measured in Victor 2, (scanning multiwell spectrophotometer, Wallac).
1st. Day: • Medium: RPMI 1640 with GlutaMAX™ I (Invitrogen, Cat-Nr. 61870), 5% FCS (Sigma Cat.-No. F4135), Pen/Strep (Invitrogen, Cat No. 15140). • HCT116 (ATCC-No. CCl-247): 1000 cells in 60 μl per well of 384 well plate (Greiner 781098, μClear-plate white) • After seeding incubate plates 24 h at 37° C., 5% CO2 2nd. Day: Induction (Treatment with Compounds, 10 Concentrations):
In order to achieve a final concentration of 30 μM as highest concentration 3.5 μl of 10 mM compound stock solution were added directly to 163 μl media. Then step e) of the dilution procedure described below, was followed.
In order to achieve the second highest to the lowest concentrations, a serial dilution with dilution steps of 1:3 was followed according to the procedure (a-e) as described here below: • a) for the second highest concentration add 10 μl of 10 mM stock solution of compound to 20 μl dimethylsulfoxide (DMSO) • b) dilute 8×1:3 (always 10 μl to 20 μl DMSO) in this DMSO dilution row (results in 9 wells with concentrations from 3333.3 μM to 0.51 μM) • c) dilute each concentration 1:47.6 (3.5 μl compound dilution to 163 μl media) • e) add 10 μl of every concentration to 60 μl media in the cell plate resulting in final concentration of DMSO: 0.3% in every well and resulting in 10 final concentration of compounds ranging from 30 μM to 0.0015 μM. • Each compound is tested in triplicate. • Incubate 120 h (5 days) at 37° C., 5% CO2
• Add 30 μl CellTiter-Glo™ Reagent (prepared from CellTiter-Glo™ Buffer and CellTiter-Glo™ Substrate (lyophilized) purchased from Promega) per well, • shake 15 minutes at room temperature • incubate further 45 minutes at room temperature without shaking
• Victor 2 scanning multiwell spectrophotometer (Wallac), Luminescence mode (0.5 sec/read, 477 nm) • Determine IC50 using a non-linear curve fit (XLfit software (ID Business Solution Ltd., Guilford, Surrey, UK))

| Compound | pIC50 (Aurora A kinase) | pIC50 (HCT 116 cells) |
| --- | --- | --- |
| CCN1C(=O)C(C)(C)c2cc3nc(-c4n[nH]c5ccc(-c6nc[nH]n6)cc45)[nH]c3cc21 [Example 1, 5-Ethyl-7,7-dimethyl-2-[5-(1H-[1,2,4]triazol-3-yl)-1H-indazol-3-yl]-5,7-dihydro-3H-imidazo[4,5-f]indol-6-one] | 8.70 | 5.82 to 7.60 |
| CCN1C(=O)C(C)(C)c2cc3nc(-c4n[nH]c5cc(-c6ccsc6)ccc45)[nH]c3cc21 [Example 4, 5-Ethyl-7,7-dimethyl-2-(6-thiophen-3-yl-1H-indazol-3-yl)-5,7-dihydro-3H-imidazo[4,5-f]indol-6-one] | 7.66 | 5.82 to 7.60 |
| CCN1C(=O)C(C)(C)c2cc3nc(-c4n[nH]c5cc(/C=C/c6ccc(F)cc6)ccc45)[nH]c3cc21 [Example 6, 5-Ethyl-2-{6-[(E)-2-(4-fluoro-phenyl)-vinyl]-1H-indazol-3-yl}-7,7-dimethyl-5,7-dihydro-3H-imidazo[4,5-f]indol-6-one] | 7.46 | 5.82 to 7.60 |
| CCN1C(=O)C(C)(C)c2cc3nc(-c4n[nH]c5cc(/C=C/c6ccc(C(F)(F)F)cc6)ccc45)[nH]c3cc21 [Example 11, 5-Ethyl-7,7-dimethyl-2-{6-[(E)-2-(4-trifluoromethyl-phenyl)-vinyl]-1H-indazol-3-yl}-5,7-dihydro-3H-imidazo[4,5-f]indol-6-one] | 7.72 |  |
| CCN1C(=O)C(C)(C)c2cc3nc(-c4n[nH]c5cc(/C=C/C6CCCCC6)ccc45)[nH]c3cc21 [Example 19, 2-[6-((E)-2-Cyclohexyl-vinyl)-1H-indazol-3-yl]-5-ethyl-7,7-dimethyl-5,7-dihydro-3H-imidazo[4,5-f]indol-6-one] | 7.24 | 5.82 to 7.60 |
| CCN1C(=O)C(C)(C)c2cc3nc(-c4n[nH]c5ccc(-c6cccc(N(C)C)c6)cc45)[nH]c3cc21 [Example 29, 2-[5-(3-Dimethylamino-phenyl)-1H-indazol-3-yl]-5-ethyl-7,7-dimethyl-5,7-dihydro-3H-imidazo[4,5-f]indol-6-one] | 8.22 | 5.82 to 7.60 |
| CCN1C(=O)C(C)(C)c2cc3nc(-c4n[nH]c5cc(C#Cc6ccccc6)ccc45)[nH]c3cc21 [Example 38, 5-Ethyl-7,7-dimethyl-2-(6-phenylethynyl-1H-indazol-3-yl)-5,7-dihydro-3H-imidazo[4,5-f]indol-6-one] | 8.05 | 5.82 to 7.60 |
